Conditions: intranasal 0.05% or 0.1% spray
Procedure: Each group started with approximately 190 subjects.
The plasma samples from 43 subjects included in this clinical trial were collected for pharamacokinetic analysis following the first dose (Day 1) and the last dose (Day 14). Plasma epinastine levels following intranasal administration were determined.

In the case of `NC1=NCC2c3ccccc3Cc3ccccc3N12` (centres unmarked) [epinastine, 3-amino-9,13b-dihydro-1H-dibenz-[c,-f]imidazol[1,5-a]azepine], the “dose proportionality of plasma epinastine concentrations” value is reported as “generally proportional to the nasal dose administered” and the “plasma concentrations of epinastine” value (after first dose (Day 1) and last dose (Day 14), 43 subjects) is reported as under 1 ng/mL.

Reference: patent publication US20080194544A1, “AQUEOUS FORMULATIONS OF EPINASTINE FOR TREATING ALLERGIC RHINITIS” (priority 2007, published 2008)
